Reference: patent US20110098269A1, “Substituted Pyridazinone Derivatives as Histamine-3 (H3) Receptor Ligands” (Cephalon, Inc., priority 2008, published 2011)
Where a name gives a salt, the structure may show the parent alone.

Key:
human H3 receptor = target: T1, human H3 receptor (Homo sapiens, UniProt Q9Y5N1); test: Human H3 radioligand binding ([3H]-N-alpha-methylhistamine, CHO cell membranes); details: Human H3 binding constant, class symbols; read-out: hH3 Ki
T1 construct: expressed in transfected cells
T1 sequence (Q9Y5N1 whole entry): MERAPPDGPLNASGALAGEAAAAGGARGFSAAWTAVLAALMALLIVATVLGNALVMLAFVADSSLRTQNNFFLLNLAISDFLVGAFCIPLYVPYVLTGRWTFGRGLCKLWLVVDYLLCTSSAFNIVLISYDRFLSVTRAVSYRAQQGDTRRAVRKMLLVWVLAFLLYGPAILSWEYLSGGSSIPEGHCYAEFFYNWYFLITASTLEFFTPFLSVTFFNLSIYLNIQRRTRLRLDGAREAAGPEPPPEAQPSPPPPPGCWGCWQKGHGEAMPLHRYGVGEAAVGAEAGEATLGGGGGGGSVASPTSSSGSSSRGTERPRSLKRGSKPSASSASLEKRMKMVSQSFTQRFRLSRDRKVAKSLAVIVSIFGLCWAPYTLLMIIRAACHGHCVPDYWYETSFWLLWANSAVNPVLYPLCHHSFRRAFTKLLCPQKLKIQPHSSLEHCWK
Procedure: (§1) Methods: CHO cells stably expressing the human H3 receptor (GenBank: NM_007232) were harvested and cell pellets were frozen (−80° C.). Cell pellets were resuspended in 5 mM Tris-HCl, pH 7.5 with 5 nM EDTA and a cocktail of protease inhibitors (Complete Protease Inhibitor Tablets, Roche Diagnostics). Cells were disrupted using a polytron cell homogenizer and the suspension was centrifuged at 1000×g for 10 minutes at 4° C. The pellet was discarded and the supernatant centrifuged at 40,000×g for 30 min at 4° C. This membrane pellet was washed in membrane buffer containing 50 mM Tris-HCl, pH 7.5 with 0.6 mM EDTA, 5 mM MgCl2 and protease inhibitors, recentrifuged as above and the final pellet resuspended in membrane buffer plus 250 mM sucrose and frozen at −80° C.
(§2) Radioligand Binding. Membranes were resuspended in 50 mM Tris HCl (pH 7.4), 5 mM MgCl2, 0.1% BSA. The membrane suspensions (10 μg protein per well) were incubated in a 96 well microtiter plate with [^3H]-N-alpha-methylhistamine (approximately 1 nM final concentration), test compounds at various concentrations (0.01 nM-30 μM) and scintillation proximity beads (Perkin Elmer, FlashBlueGPCR Scintillating Beads) in a final volume of 80 μl for 4 hours at room temperature, protected from light. Non-specific binding was determined in the presence of 10 μM clobenpropit. Radioligand bound to receptor, and therefore in proximity to the scintillation beads, was measured using a MicroBeta scintillation counter.

[1] = target: T2, rat histamine H3 receptor (Rattus norvegicus, UniProt Q9QYN8); test: Rat H3 radioligand binding ([3H]-N-alpha-methylhistamine, CHO-A3 cell membranes); details: Rat H3 binding constant, class symbols; read-out: rH3 Ki
T2 construct: encoding the entire 445-amino-acid rat histamine H3 receptor; expressed in transfected cells
T2 sequence (Q9QYN8 whole entry): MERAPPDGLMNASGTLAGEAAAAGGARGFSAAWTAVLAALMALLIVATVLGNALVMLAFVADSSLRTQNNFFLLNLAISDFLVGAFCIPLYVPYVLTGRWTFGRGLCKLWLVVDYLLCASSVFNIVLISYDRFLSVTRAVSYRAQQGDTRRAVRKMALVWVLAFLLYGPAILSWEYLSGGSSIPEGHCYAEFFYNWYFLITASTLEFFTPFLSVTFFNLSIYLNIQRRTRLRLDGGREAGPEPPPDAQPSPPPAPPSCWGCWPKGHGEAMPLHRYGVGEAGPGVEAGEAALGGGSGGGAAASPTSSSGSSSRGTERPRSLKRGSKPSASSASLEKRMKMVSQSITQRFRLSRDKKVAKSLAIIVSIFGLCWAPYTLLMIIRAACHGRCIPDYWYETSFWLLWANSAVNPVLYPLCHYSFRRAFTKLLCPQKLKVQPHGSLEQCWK
Excerpt: as §1, with “Cell line development and membrane preparation. The rat” for “Methods: CHO cells stably expressing the human”, “cDNA was PCR amplified from reverse-transcribed RNA pooled from rat thalamus, hypothalamus, striatum and prefrontal cortex with a sequence corresponding to by #338-1672 of Genbank file #NM_053506, encoding the entire 445-amino-acid rat histamine H3 receptor. This was engineered into the pIRES-neo3 mammalian expression vector, which was stably transfected into the CHO-A3 cell line (Euroscreen, Belgium), followed by clonal selection by limiting dilution. Cells” for “(GenBank: NM_007232)”
as §2

melting point [°C] | Ki (human H3 receptor) [nM] | Ki [1] [nM] | Structure (SMILES)
239 to 240 |  |  | Cn1nc(-c2ccc3c(c2)CCN(C2CCCC2)CC3)ccc1=O (as salt: HCl) [Example 23, 6-(3-Cyclopentyl-2,3,4,5-tetrahydro-1H-benzo[d]azepin-7-yl)-2-methyl-2H-pyridazin-3-one. HCl]
129 to 132 |  |  | O=C1NN=C(c2ccc3c(c2)CCN(C2CCC2)CC3)C2CC12 (centres unmarked) (as salt: HCl) [Example 40, 5-(3-Cyclobutyl-2,3,4,5-tetrahydro-1H-benzo[d]azepin-7-yl)-3,4-diaza-bicyclo[4.1.0]hept-4-en-2-one]
295 to 298 |  |  | C[C@@H]1CCCN1CCc1ccc2cc(-c3ccc(=O)[nH]n3)ccc2c1 (as salt: HCl) [Example 70, 6-{6-[2-((R)-2-Methyl-pyrrolidin-1-yl)-ethyl]-naphthalen-2-yl}-2H-pyridazin-3-one]
250 to 251 | < 100 | < 100 | O=c1ccc(-c2ccc3c(c2)CCN(C2CCC2)CC3)n[nH]1 [Example 2, 6-(3-Cyclobutyl-2,3,4,5-tetrahydro-1H-benzo[d]azepin-7-yl)-2H-pyridazin-3-one]
140 to 141 | < 100 | 100 to 1000 | CC(C)N1N=C(c2ccc3c(c2)CCN(C2CCC2)CC3)CCC1=O [Example 4, 6-(3-Cyclobutyl-2,3,4,5-tetrahydro-1H-benzo[d]azepin-7-yl)-2-isopropyl-4,5-dihydro-2H-pyridazin-3-one]
199 to 200 | < 100 | 100 to 1000 | CC(C)n1nc(-c2ccc3c(c2)CCN(C2CCC2)CC3)ccc1=O [Example 7, 6-(3-Cyclobutyl-2,3,4,5-tetrahydro-1H-benzo[d]azepin-7-yl)-2-isopropyl-2H-pyridazin-3-one]
178 to 179 | < 100 | 100 to 1000 | O=C1CCC(c2ccc3c(c2)CCN(C2CCC2)CC3)=NN1 [Example 9, 6-(3-Cyclobutyl-2,3,4,5-tetrahydro-1H-benzo[d]azepin-7-yl)-4,5-dihydro-2H-pyridazin-3-one]
139 to 140 | < 100 | < 100 | O=C1CCC(c2ccc3c(c2)CCN(C2CCC2)CC3)=NN1CC(F)(F)F [Example 10, 6-(3-Cyclobutyl-2,3,4,5-tetrahydro-1H-benzo[d]azepin-7-yl)-2-(2,2,2-trifluoro-ethyl)-4,5-dihydro-2H-pyridazin-3-one]
142 to 143 | < 100 | < 100 | O=c1ccc(-c2ccc3c(c2)CCN(C2CCC2)CC3)nn1CC(F)(F)F [Example 11, 6-(3-Cyclobutyl-2,3,4,5-tetrahydro-1H-benzo[d]azepin-7-yl)-2-(2,2,2-trifluoro-ethyl)-2H-pyridazin-3-one]
97 to 98 | < 100 | < 100 | CCN1N=C(c2ccc3c(c2)CCN(C2CCC2)CC3)CCC1=O [Example 12, 6-(3-Cyclobutyl-2,3,4,5-tetrahydro-1H-benzo[d]azepin-7-yl)-2-ethyl-4,5-dihydro-2H-pyridazin-3-one]
104 to 105 | < 100 | < 100 | CCCCN1N=C(c2ccc3c(c2)CCN(C2CCC2)CC3)CCC1=O [Example 13, 2-Butyl-6-(3-cyclobutyl-2,3,4,5-tetrahydro-1H-benzo[d]azepin-7-yl)-4,5-dihydro-2H-pyridazin-3-one]
88 to 89 | < 100 | < 100 | CCCCn1nc(-c2ccc3c(c2)CCN(C2CCC2)CC3)ccc1=O [Example 14, 2-Butyl-6-(3-cyclobutyl-2,3,4,5-tetrahydro-1H-benzo[d]azepin-7-yl)-2H-pyridazin-3-one]
134 to 135 | < 100 | 100 to 1000 | CC(C)CN1N=C(c2ccc3c(c2)CCN(C2CCC2)CC3)CCC1=O [Example 15, 6-(3-Cyclobutyl-2,3,4,5-tetrahydro-1H-benzo[d]azepin-7-yl)-2-isobutyl-4,5-dihydro-2H-pyridazin-3-one]
245 to 246 | < 100 | 100 to 1000 | CC(C)Cn1nc(-c2ccc3c(c2)CCN(C2CCC2)CC3)ccc1=O [Example 16, 6-(3-Cyclobutyl-2,3,4,5-tetrahydro-1H-benzo[d]azepin-7-yl)-2-isobutyl-2H-pyridazin-3-one]
141 to 142 | < 100 | < 100 | O=C1CCC(c2ccc3c(c2)CCN(C2CCC2)CC3)=NN1CCO [Example 17, 6-(3-Cyclobutyl-2,3,4,5-tetrahydro-1H-benzo[d]azepin-7-yl)-2-(2-hydroxy-ethyl)-4,5-dihydro-2H-pyridazin-3-one]
157 to 158 | < 100 | < 100 | O=c1ccc(-c2ccc3c(c2)CCN(C2CCC2)CC3)nn1CCO [Example 18, 6-(3-Cyclobutyl-2,3,4,5-tetrahydro-1H-benzo[d]azepin-7-yl)-2-(2-hydroxy-ethyl)-2H-pyridazin-3-one]
126 to 128 | < 100 | 100 to 1000 | O=C1CCC(c2ccc3c(c2)CCN(C2CCC2)CC3)=NN1C1CCC1 [Example 19, 2-Cyclobutyl-6-(3-cyclobutyl-2,3,4,5-tetrahydro-1H-benzo[d]azepin-7-yl)-4,5-dihydro-2H-pyridazin-3-one]
287 to 288 | < 100 | < 100 | Cn1nc(-c2ccc3c(c2)CCN(C2CCC2)CC3)ccc1=O [Example 21, 6-(3-Cyclobutyl-2,3,4,5-tetrahydro-1H-benzo[d]azepin-7-yl)-2-methyl-2H-pyridazin-3-one]
225 | < 100 | 100 to 1000 | CS(=O)(=O)c1ccc(-n2nc(-c3ccc4c(c3)CCN(C3CCC3)CC4)ccc2=O)cc1 [Example 25, 6-(3-Cyclobutyl-2,3,4,5-tetrahydro-1H-benzo[d]azepin-7-yl)-2-(4-methanesulfonyl-phenyl)-2H-pyridazin-3-one]
134 to 137 | < 100 | < 100 | Cn1nc(-c2ccc(Oc3ccc4c(c3)CCN(C3CCC3)CC4)nc2)ccc1=O [Example 26, 6-[6-(3-Cyclobutyl-2,3,4,5-tetrahydro-1H-benzo[d]azepin-7-yloxy)-pyridin-3-yl]-2-methyl-2H-pyridazin-3-one]
 | < 100 | < 100 | C[C@@H]1CCCN1CCc1ccc(-c2ccc(=O)n(-c3ccc(F)cc3)n2)cc1 [Example 67]
 | > 1000 | > 1000 | O=c1ccc(-c2ccc(CCN3CCOCC3)cc2)nn1-c1ccccc1 [Example 68]
 | < 100 | 100 to 1000 | C[C@@H]1CCCN1CCc1ccc(-c2ccc(=O)n(-c3ccccn3)n2)cc1 [Example 69]

Structure (SMILES) | melting point [°C] | Ki (human H3 receptor) [nM] | Ki [1] [nM]
CC(C)N1CCc2ccc(-c3ccc(=O)n(C)n3)cc2CC1 (as salt: HCl) [Example 22, 6-(3-Isopropyl-2,3,4,5-tetrahydro-1H-benzo[d]azepin-7-yl)-2-methyl-2H-pyridazin-3-one. HCl] | 254 to 256 |  | 
O=C1NN=C(c2ccc3c(c2)CCNCC3)C2CC12 (centres unmarked) (as salt: HCl) [Example 39, 5-(2,3,4,5-Tetrahydro-1H-benzo[d]azepin-7-yl)-3,4-diaza-bicyclo[4.1.0]hept-4-en-2-one] | 148 to 151 |  | 
CC(C)N1CCc2ccc(C3=NN(C(C)C)C(=O)CC3)cc2CC1 [Example 6, 2-Isopropyl-6-(3-isopropyl-2,3,4,5-tetrahydro-1H-benzo[d]azepin-7-yl)-4,5-dihydro-2H-pyridazin-3-one] | 125 to 126 | 100 to 1000 | 100 to 1000
CC(C)N1CCc2ccc(-c3ccc(=O)n(C(C)C)n3)cc2CC1 [Example 8, 2-Isopropyl-6-(3-isopropyl-2,3,4,5-tetrahydro-1H-benzo[d]azepin-7-yl)-2H-pyridazin-3-one] | 244 to 245 | 100 to 1000 | 100 to 1000
Cn1nc(-c2ccc3c(c2)CCNCC3)ccc1=O [Example 20, 2-Methyl-6-(2,3,4,5-tetrahydro-1H-benzo[d]azepin-7-yl)-2H-pyridazin-3-one] | 183 to 185 | > 1000 | > 1000
